Laboratory results: US7563459B2, “Methods and compositions for regenerating tissue” (The United States of America as represented by the …, priority 2002, dated 2009)
“Also recorded” adds a separate entry of the source.

Tests used:
[1] = system: platelet aggregation induced by ADP and adrenaline; conditions: reported in the literature; cited from earlier work
[2] = system: human mesenchymal stem cells (MSC); test: In situ hybridization for human DNA in organs after MSC infusion; format: in vivo, NOD-SCID mice; conditions: 0.56×10^6 MSC preceded by 11 mg orosomucoid i.v.
From the text: Mice were imaged and the biodistribution of the radiolabelled MSCs cells monitored as described in Example 1. […] The positions of the cannula, diaphragm, heart, lungs, and liver were verified by CT scans (coronal sections).
The positions of the cannula, diaphragm, heart, lungs, and liver were verified by CT scans. In situ hybridization confirmed the gamma camera biodistribution data.

[3] = system: human CD34+ (hCD34+) peripheral blood stem cells; test: In vivo trafficking of 111In-labeled human CD34+ stem cells (HSC) after glycoprotein pretreatment, gamma camera imaging; set-up: species or system NOD-SCID mice
[4] = system: human mesenchymal stem cells (MSC); test: In vivo trafficking of 111In-labeled human mesenchymal stem cells (MSC) after glycoprotein pretreatment, gamma camera imaging; set-up: species or system NOD-SCID mice
Description: Human mesenchymal stem cells (hMSCs; PT-2501) obtained through an FDA-monitored, paid bone marrow donor program were purchased from Poietics Technologies, BioWhittaker (Walkerville, Md.). The cells were thawed according to manufacturer recommendations, resuspended, and radiolabelled in Mesenchymal Stem Cell Basal Medium (MSCBM).
^111Indium Oxine Labelling Procedure: ^111In-oxine labelling of adult human CD34+ or mesenchymal stem cells (hMSCs) was performed using a modification of the Amersham Healthcare Procedure for labelling autologous leukocytes.
Imaging procedures: Nuclear Medicine. NOD-SCID mice were anesthetized using rodent anesthesia cocktail. Once anesthetized, the mice were placed on a foam hemi-cylindrical mouse-positioning device (MPD,) and covered with a tube sock. The MPD allows better visual separation of the lungs and liver as compared to placing the mouse on a flat surface. The foam on which the mouse was placed, and the tube sock covering maintained a comfortable temperature permitting longer imaging without additional anesthesia. The MPD was placed on a narrow table between the dual heads of a Siemens E.Cam Gamma Camera and imaged statically or dynamically in 2-D or SPECT. ^57Co-Spot Marker is used to mark anatomic positions (nose, tail, cannula, etc.). The data was analyzed using a Siemens ICON system for regions of interest or percent of injected dose (e.g., liver, spleen, heart).
Gamma camera imaging using a Siemens E.Cam dual head gamma camera monitored the in vivo trafficking patterns of all human stem cells described in the following examples. Mice were placed on a Mouse Positioning Device (MPD) and placed between the detectors on the imaging platform.
MSC were obtained from BioWhittaker, (Poietics Division, cryopreserved PT-2501>750000 cells per ampoule) and labelled with ^111In as in previous examples, except that the MSC were labelled, washed, and injected in Basal Stem Cell Medium (Poietics) containing 5% human serum albumin (HSA). 0.56×10^6, ^111In-labelled, human mesenchymal stem cells (MSC) were administered via an implanted DaVinci Microport Vascular System cannula in the external jugular vein of a two-month old, female NOD-SCID mouse in 0.21 ml of basal stem cell medium containing 5% human serum albumin (HSA). Immediately prior to administration of MSC, 11.0 mg of orosomucoid was administered i.v. in 0.2 ml.
0.56×10^6, ^111In-labeled MSC were administered i.v. in 0.21 ml of basal stem cell medium containing 5% human serum albumin (HSA). […]

[5] = system: human CD34+ (hCD34+) peripheral blood stem cells; test: Microscopic examination of organs: immunohistochemical staining for human CD34 and in situ hybridization for human DNA after HSC infusion; format: in vivo, NOD-SCID mice
From the text: Harvesting for tissues for histopathology: Tissues were harvested after euthanasia. After the 1-hour image, the organs were harvested and half the organ was fixed in 10% neutral buffered formalin and the other half was frozen in OTC for frozen sections. The images presented herein are from fixed tissues.
Necropsy Procedure For Collection of Mouse Tissues: An initial midline skin incision from the anterior cervical region to the brim of the pubis was made followed by an abdominal incision following linea alba from the sternum to the pubis with a lateral reflection of the abdominal wall by incision following the caudal ribs. The sternum was reflected anteriorly by cutting the ribs at approximately the level of the costochrondral junction, incising the diaphragm and pericardium as needed. Anteriorly, reflection of sternum was extended to include the ventral cervical muscles to expose the trachea. The trachea and esophagus were incised at the mid cervical area and reflected caudally, cutting attachments as necessary to remove the thoracic viscera in toto. Following removal of the thoracic viscera, the entire heart was dissected free and immersed in 10% neutral buffered formalin. […]
Mice were imaged and the biodistribution of the radiolabelled hCD34+ cells monitored as described above. […]

[6] = cells infused into the jugular vein of immunodeficient mice, preceded by an infusion of the protein

## Orosomucoid: alpha-(1)-acid glycoprotein, a normal constituent of human plasma; single polypeptide chain, approximately 45% carbohydrate including 12% sialic acid
[1]
  Amounts that inhibit platelet aggregation: 5 to 15 mg/mL
[2]
  Location of human cells by in situ hybridization: human cells predominantly in the heart, but not the liver
[3]; 0.5×10^6 HSC preceded by 11 mg orosomucoid i.v., 1 hr
  % infused cells in liver region: 40±3%
[3]; 0.5×10^6 HSC preceded by 11 mg orosomucoid i.v., immediately after infusion
  % infused cells in liver and spleen: 43±2%
[3]; 5.75×10^6 HSC preceded by 5.5 mg orosomucoid i.v.
  111In-labeled HSC in the region of the heart (imaging, words): No ^111In-labeled cells were found in the region of the heart
[3]; [6]
  Organ in which hematopoietic stem cells localize (summary, words): localize in the liver
[4]; 0.56×10^6 MSC preceded by 11 mg orosomucoid i.v., 0 hr
  % Infused Cells In Heart: 61.7-75.5%
[4]; 0.56×10^6 MSC preceded by 11 mg orosomucoid i.v., 1 hr
  % Infused Cells In Heart: 58-64%
[4]; MSC/Orosomucoid, at 12 hr (Table 1)
  % Infused Cells In Heart: 61 ± 3% at 12 hr
[4]; [6]
  Organ in which mesenchymal stem cells localize (summary, words): predominantly localize in the heart
[5]; 0.5×10^6 HSC preceded by 11 mg orosomucoid i.v., about 1 hour after infusion
  Tissue location of hCD34+ cells (CD34 staining, in situ hybridization for human DNA): Clusters of cells with stem cell morphology could be seen in the hepatic sinusoid; also recorded: not found in the heart muscle or interventricular septum but were present in the lung
[5]; hematopoietic stem cells after protein infusion
  Migration of stem cells into tissue (summary, words): clusters of stem cells are found in the liver parenchyma
